According to patent publication US11198741B2, “Medicines for topic use based on sulfated hyaluronic acid as activating or inhibiting agent of the cytokine activity” (Fidia Farmaceutici S.p.A., priority 2009, dated 2021):

How the values were obtained:
IL-12 = test: Gene expression of IL-12 in human synoviocytes (PCR Real Time); assay type: cell-based; conditions: 3 days of treatment, FIG. 2: 0.5 mg/ml, vs control treated with non-sulfated HA 200 KD
Method: Human synoviocytes previously expanded in vitro and maintained in a culture at 37° C. with a medium of DMEM containing 10% of FCS, were seeded at a concentration of 20,000 cells per well (synoviocytes are cells capable of producing various types of cytokines, and are therefore normally used for this type of experimental test). […] After 3 days of treatment, the PCR Real Time was effected to evaluate the gene expression of IL-10 and IL-12: the cell RNA was extracted using the “Trizol” method, following the indications of the supplier (TRIZOL reagent, LIFE Technologies, GIBCO BRL). In short, the cells were lysed by the addition of 1.0 ml of Trizol and the total RNA was quantified by measuring its absorbance at 260 nm. The appropriate primers were selected for each gene to be amplified, using the software Primer3 (Roche Molecular Diagnostics, Pleasanton, Calif., USA). The gene expression was evaluated by means of PCR Real Time effected with a Rotor-gene TM5500 (Corbett research, Sydney, Australia). The PCR reactions were effected using primers at […] and SYBR Green (Invitroge, Carlsbad, Calif., USA) at 40 cycles of 15 s at 95° C., and 1 min. at 60° C. The value of “Fluorescence thresholds (Ct)” was automatically determined by the software, evaluating an amplification coefficient for the genes studied between 92 and 110%. […]

fibrin clot = molecular target: T1, fibrin clot (Homo sapiens, UniProt P02671+P02675+P02679); test: In vitro fibrinolytic activity: dissolution of fibrin clot in coagulated plasma (absorbance at 405 nm); assay type: biochemical; conditions: 37° C.
T1 sequence (P02671 20-644 isoform P02671-2 limits assumed): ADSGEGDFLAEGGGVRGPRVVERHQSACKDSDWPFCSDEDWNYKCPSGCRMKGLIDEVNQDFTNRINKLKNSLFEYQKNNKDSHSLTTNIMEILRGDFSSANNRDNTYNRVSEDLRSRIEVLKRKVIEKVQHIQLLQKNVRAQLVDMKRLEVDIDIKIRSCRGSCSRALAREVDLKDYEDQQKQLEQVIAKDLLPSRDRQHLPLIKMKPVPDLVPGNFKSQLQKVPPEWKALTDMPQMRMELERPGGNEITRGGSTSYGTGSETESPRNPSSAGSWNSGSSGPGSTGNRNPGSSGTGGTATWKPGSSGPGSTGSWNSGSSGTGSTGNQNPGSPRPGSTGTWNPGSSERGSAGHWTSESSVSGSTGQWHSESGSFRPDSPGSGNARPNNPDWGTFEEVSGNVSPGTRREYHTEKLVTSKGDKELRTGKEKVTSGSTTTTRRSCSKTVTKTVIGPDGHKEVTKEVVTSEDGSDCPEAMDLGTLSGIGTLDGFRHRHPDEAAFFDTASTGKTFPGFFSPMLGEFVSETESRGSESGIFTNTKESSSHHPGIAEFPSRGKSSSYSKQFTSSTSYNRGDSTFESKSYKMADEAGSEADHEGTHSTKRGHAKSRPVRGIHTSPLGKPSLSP
T1 sequence (P02675 45-491 limits assumed): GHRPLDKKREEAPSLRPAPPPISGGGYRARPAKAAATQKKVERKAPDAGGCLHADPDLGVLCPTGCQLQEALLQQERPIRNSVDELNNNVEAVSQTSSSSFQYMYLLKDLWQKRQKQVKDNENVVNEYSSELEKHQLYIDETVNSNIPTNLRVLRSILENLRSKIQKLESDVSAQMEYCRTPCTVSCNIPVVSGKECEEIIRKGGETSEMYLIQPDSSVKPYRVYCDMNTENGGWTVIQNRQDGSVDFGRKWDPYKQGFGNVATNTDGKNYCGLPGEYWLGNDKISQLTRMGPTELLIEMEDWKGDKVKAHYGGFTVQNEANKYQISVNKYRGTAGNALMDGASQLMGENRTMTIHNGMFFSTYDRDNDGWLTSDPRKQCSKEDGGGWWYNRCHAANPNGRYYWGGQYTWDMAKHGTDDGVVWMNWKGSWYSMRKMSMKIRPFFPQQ
T1 sequence (P02679 27-437 isoform P02679-2 limits assumed): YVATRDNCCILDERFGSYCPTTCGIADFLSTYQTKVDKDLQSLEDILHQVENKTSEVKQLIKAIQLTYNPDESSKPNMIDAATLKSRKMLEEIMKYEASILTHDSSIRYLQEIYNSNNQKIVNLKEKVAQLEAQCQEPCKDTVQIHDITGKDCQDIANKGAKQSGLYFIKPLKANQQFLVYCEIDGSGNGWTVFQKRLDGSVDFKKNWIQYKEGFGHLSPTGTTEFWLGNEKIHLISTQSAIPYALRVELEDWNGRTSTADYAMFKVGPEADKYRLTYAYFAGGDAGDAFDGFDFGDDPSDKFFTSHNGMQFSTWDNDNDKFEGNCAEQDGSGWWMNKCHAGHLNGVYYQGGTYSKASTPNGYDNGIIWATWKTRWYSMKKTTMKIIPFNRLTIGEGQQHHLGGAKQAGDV
Method: The evaluation of the fibrinolytic properties of the products subjected to the test was compared with the acknowledged fibrinolytic activity of the plasmin. In particular, the dissolution rate of the fibrin network and formation of soluble products of the fibrin degradation (FDP), was evaluated.
In order to test the fibrinolytic effectiveness of the products subjected to testing, the blood samples were distributed in various test-tubes in which the clot formation was induced.
The formation of FDP was then evaluated after the addition of:
The freshly removed blood samples were distributed in various test-tubes containing sodium citrate in a ratio of 9:1. The test-tubes were immediately centrifuged at 3,000 rpm for 5 minutes. The plasma obtained was transferred to a new test-tube and immediately used for effecting the FDP evaluation.
Thrombin (300 mU/ml), preheated to 37° C. was added to the plasma samples, as activator of the fibrinogen in inducing the formation of the clot.
The following were added to the different cuvettes containing the fibrin clot:
a plasmin solution 0.5 mU, 5 mU, 50 mU, 500 mU and 1 U
solutions of HAS3 at concentrations of 25 mg/ml, 50 mg/ml, 100 mg/ml, 150 mg/ml and 200 mg/ml.
The absorbance variation at 405 nm for 60 sec. was evaluated spectrophotometrically for each cuvette. The reaction was left to proceed until the complete dissolution of the clot.
Coagulated plasma, plasmin solution and a solution of HAS3 200 KD and HAS3 20 KD were mixed in a ratio of 1:1 v/v and maintained at an operating temperature of 37° C.

sulfated hyaluronic acid degree 3 [HAS3]
gene expression of IL-12 (synthesis of its mRNA) (IL-12): halving the synthesis of its mRNA | fibrinolytic activity (expressed in mU equivalents of Plasmin) (fibrin clot; 25 mg/ml): 0.5 mU | fibrinolytic activity (expressed in mU equivalents of Plasmin) (fibrin clot; 50 mg/ml): 3 mU | fibrinolytic activity (expressed in mU equivalents of Plasmin) (fibrin clot; 100 mg/ml): 10 mU | fibrinolytic activity (expressed in mU equivalents of Plasmin) (fibrin clot; 150 mg/ml): 50 mU | fibrinolytic activity (expressed in equivalents of Plasmin) (fibrin clot; 200 mg/ml): 1.1 U
